Laboratory results: patent US20250163048A1 (Tango Therapeutics, Inc., priority 2022, published 2025)
Read-outs that look alike come from different tables or passages of the source.

What was measured:
[1] = system: MTAP-deleted cell line; assay: viability assay for the MTAP-deleted cell line; format: cell-based; conditions: Homo sapiens, HAP1, viability assay
[2] = system: HAP1 MTAP-intact cell line; assay: SDMA in-cell western assay, HAP1 MTAP-intact
[3] = system: HAP1 MTAP-deleted cell line; assay: SDMA in-cell western assay, HAP1 MTAP-deleted; conditions: for IC50 / IC90: Homo sapiens; for Hap1 MTAP intact/deleted ratio: IC50 ratio between HAP1 MTAP-intact and HAP1 MTAP-deleted cell line
[4] = Homo sapiens, HAP1, read-out: Hap1 MTAP intact IC50, SDMA in-cell western assay, HAP1 MTAP-intact cell line
[5] = HAP1, read-out: Hap1 MTAP deleted IC50, SDMA in-cell western assay, HAP1 MTAP-deleted cell line
[6] = HAP1, read-out: Hap1 MTAP deleted IC90, SDMA in-cell western assay, HAP1 MTAP-deleted cell line
[7] = Homo sapiens, HAP1, read-out: Hap1 MTAP intact IC50, SDMA in-cell western, HAP1 MTAP-intact cell line
[8] = HAP1, read-out: Hap1 MTAP deleted IC50, SDMA in-cell western, HAP1 MTAP-deleted cell line
[9] = HAP1, read-out: Hap1 MTAP deleted IC90, SDMA in-cell western, HAP1 MTAP-deleted cell line
[10] = Homo sapiens, HAP1, read-out: Hap1 MTAP intact IC50

| Compound | IC50 [2, 4] [nM] | IC50 [3, 5] [nM] | IC90 [3, 6] [nM] | IC50 [2, 7] [nM] | IC50 [3, 8] [nM] | IC90 [3, 9] [nM] | IC50 ([2]; read-out: Hap1 MTAP intact IC50, SDMA in-cell western assay, HAP1 MTAP-intact cell line) [nM] | IC50 [2, 10] [nM] | IC50 [1] [nM] | Hap1 MTAP intact/deleted ratio ([3]; SDMA in-cell western assay) | Hap1 MTAP intact/deleted ratio ([3]; SDMA in-cell western) |
| --- | --- | --- | --- | --- | --- | --- | --- | --- | --- | --- | --- |
| C[C@H]1CC[C@H](c2ccc3sc(C4CCOCC4)nc3c2)N(C(=O)C(=O)Nc2cnc(N)c3cn[nH]c23)C1 [Compound 143, N-(4-amino-1H-pyrazolo[4,3-c]pyridin-7-yl)-2-((2R,5S)-5-methyl-2-(2-(tetrahydro-2H-pyran-4-yl)benzo[d]thiazol-5-yl)piperidin-1-yl)-2-oxoacetamide] | – | – | – | 5 to 50 | < 5 | < 75 | – | – | < 100 | – | C (“C” indicates an IC50 ratio of less than 15 fold) |
| C[C@H]1CC[C@H]([C@H]2CCCOC2)N(C(=O)C(=O)Nc2cnc(N)c3cn[nH]c23)C1 (mixture of isomers) [Compound 140, N-(4-amino-1H-pyrazolo[4,3-c]pyridin-7-yl)-2-((2R,5S)-5-methyl-2-(rac-(R)-tetrahydro-2H-pyran-3-yl)piperidin-1-yl)-2-oxoacetamide] | – | – | – | > 50 | 5 to 50 | > 125 | – | – | 100 to 1000 | – | A (“A” indicates an IC50 ratio greater than or equal to 30 fold) |
| C[C@H]1CC[C@H](c2cccc(N3CCN(C)CC3)c2)N(C(=O)C(=O)Nc2cnc(N)c3cn[nH]c23)C1 [Compound 25, N-(4-amino-1H-pyrazolo[4,3-c]pyridin-7-yl)-2-((2R,5S)-5-methyl-2-(3-(4-methylpiperazin-1-yl)phenyl)piperidin-1-yl)-2-oxoacetamide] | – | – | – | 5 to 50 | < 5 | < 75 | – | – | < 100 | – | C (“C” indicates an IC50 ratio of less than 15 fold) |
| C[C@H]1CC[C@H](c2ccc3sc(C4CCN(C)CC4)nc3c2)N(C(=O)C(=O)Nc2cnc(N)c3cn[nH]c23)C1 [Compound 105, N-(4-amino-1H-pyrazolo[4,3-c]pyridin-7-yl)-2-oxo-2-[(2R,5S)-5-methyl-2-[2-(1-methyl-4-piperidyl)-1,3-benzothiazol-5-yl]-1-piperidyl]acetamide] | – | – | – | – | < 5 | < 75 | – | < 5 | < 100 | – | – |
| C[C@H]1CC[C@H](c2cccc(CCN(C)C)c2)N(C(=O)C(=O)Nc2cnc(N)c3c2cnn3C)C1 [Compound 197, N-(7-Amino-1-methyl-pyrazolo[3,4-c]pyridin-4-yl)-2-oxo-2-[(2R,5S)-2-[3-[2-(dimethylamino)ethyl]phenyl]-5-methyl-1-piperidyl]acetamide] | 5 to 50 | < 5 | < 75 | – | – | – | – | – | < 100 | C (“C” indicates an IC50 ratio of less than 15 fold) | – |
| C[C@H]1CC[C@H](c2ccc3sc([C@@H](C)CN4CCCC4)nc3c2)N(C(=O)C(=O)Nc2cncc3cn[nH]c23)C1 [Compound 86, 2-oxo-N-(1H-pyrazolo[4,3-c]pyridin-7-yl)-2-[(2R,5S)-5-methyl-2-[2-[(1S)-1-methyl-2-pyrrolidin-1-yl-ethyl]-1,3-benzothiazol-5-yl]-1-piperidyl]acetamide] | – | – | – | > 50 | < 5 | < 75 | – | – | < 100 | – | B (“B” indicates an IC50 ratio greater than or equal to 15 fold but lower than 30 fold) |
| Cc1cc([C@H]2CC[C@H](C)CN2C(=O)C(=O)Nc2cnc(N)c3cn[nH]c23)cc(C)n1 [Compound 155] | – | – | – | > 50 | 5 to 50 | 75 to 125 | – | – | < 100 | – | C (“C” indicates an IC50 ratio of less than 15 fold) |
| C[C@@H]1CC[C@@H](c2ccnn2C)N(C(=O)C(=O)Nc2cnc(N)c3cn[nH]c23)C1 (racemic) [Compound 115, N-(4-amino-1H-pyrazolo[4,3-c]pyridin-7-yl)-2-(rac-(2S,5R)-5-methyl-2-(1-methyl-1H-pyrazol-5-yl)piperidin-1-yl)-2-oxoacetamide] | – | – | – | > 50 | < 5 | < 75 | – | – | < 100 | – | A (“A” indicates an IC50 ratio greater than or equal to 30 fold) |
| C[C@H]1CC[C@H](c2ccc3sc([C@H]4CCN(C)C[C@H]4C)nc3c2)N(C(=O)C(=O)Nc2ccn3ccnc3c2)C1 (relative stereo) [Compound 58, N-imidazo[1,2-a]pyridin-7-yl-2-oxo-2-[(2R,5S)-5-methyl-2-[2-[rel-(3S,4S)-1,3-dimethyl-4-piperidyl]-1,3-benzothiazol-5-yl]-1-piperidyl]acetamide] | – | – | – | > 50 | < 5 | < 75 | – | – | < 100 | – | A (“A” indicates an IC50 ratio greater than or equal to 30 fold) |
| C[C@H]1CC[C@H](c2ccc3sc([C@@H]4CCN(C)C4)nc3c2)N(C(=O)C(=O)Nc2cncc3cn[nH]c23)C1 (single isomer, unassigned) [Compound 2] | – | – | – | 5 to 50 | < 5 | < 75 | – | – | < 100 | – | C (“C” indicates an IC50 ratio of less than 15 fold) |
| C[C@H]1CC[C@H](c2cccc(OCCN(C)C)c2)N(C(=O)C(=O)Nc2cnc(N)c3cn[nH]c23)C1 [Compound 166, N-(4-amino-1H-pyrazolo[4,3-c]pyridin-7-yl)-2-((2R,5S)-2-(3-(2-(dimethylamino)ethoxy)phenyl)-5-methylpiperidin-1-yl)-2-oxoacetamide] | – | – | – | 5 to 50 | < 5 | < 75 | – | – | < 100 | – | C (“C” indicates an IC50 ratio of less than 15 fold) |
| CO[C@H]1C[C@H](c2ccc(F)cc2)N(C(=O)C(=O)Nc2cnc(N)c3cn[nH]c23)C[C@H]1C (single isomer, unassigned) [Compound 38] | – | – | – | > 50 | > 50 | > 125 | – | – | 100 to 1000 | – | C (“C” indicates an IC50 ratio of less than 15 fold) |
| C[C@H]1CC[C@H](c2ccc3sc(C4CCN(C)CC4)nc3c2)N(C(=O)C(=O)Nc2cnc(N)c3cnccc23)C1 [Compound 11, N-(1-amino-2,7-naphthyridin-4-yl)-2-((2R,5S)-5-methyl-2-(2-(1-methylpiperidin-4-yl)benzo[d]thiazol-5-yl)piperidin-1-yl)-2-oxoacetamide] | – | – | – | 5 to 50 | < 5 | < 75 | – | – | < 100 | – | C (“C” indicates an IC50 ratio of less than 15 fold) |

Further lines, with some results ahead:

| IC50 [2, 4] [nM] | IC50 [3, 5] [nM] | IC90 [3, 6] [nM] | IC50 [2, 7] [nM] | IC50 [3, 8] [nM] | IC90 [3, 9] [nM] | IC50 ([2]; read-out: Hap1 MTAP intact IC50, SDMA in-cell western assay, HAP1 MTAP-intact cell line) [nM] | IC50 [2, 10] [nM] | Compound | IC50 [1] [nM] | Hap1 MTAP intact/deleted ratio ([3]; SDMA in-cell western assay) | Hap1 MTAP intact/deleted ratio ([3]; SDMA in-cell western) |
| --- | --- | --- | --- | --- | --- | --- | --- | --- | --- | --- | --- |
| > 50 | 5 to 50 | > 125 | – | – | – | – | – | C[C@H]1CC[C@H](C(C)(C)C)N(C(=O)C(=O)Nc2cnc(N)c3cn[nH]c23)C1 (racemic) [Compound 254, N-(4-Amino-1H-pyrazolo[4,3-c]pyridin-7-yl)-2-oxo-2-[rac-(2R,5S)-2-tert-butyl-5-methyl-1-piperidyl]acetamide] | 100 to 1000 | B (“B” indicates an IC50 ratio greater than or equal to 15 fold but lower than 30 fold) | – |
| – | 5 to 50 | > 125 | – | – | – | > 50 | – | CN(C)c1cccc(C2CCCCN2C(=O)C(=O)Nc2cnc(N)c3cn[nH]c23)c1 (single isomer, unassigned) [Compound 256] | 100 to 1000 | A (“A” indicates an IC50 ratio greater than or equal to 30 fold) | – |
| > 50 | < 5 | < 75 | – | – | – | – | – | C[C@H]1CC[C@H](C2(C)CC2)N(C(=O)C(=O)Nc2cnc(N)c3cn[nH]c23)C1 (racemic) [Compound 228, N-(4-Amino-1H-pyrazolo[4,3-c]pyridin-7-yl)-2-oxo-2-[rac-(2R,5S)-5-methyl-2-(1-methylcyclopropyl)-1-piperidyl]acetamide] | < 100 | A (“A” indicates an IC50 ratio greater than or equal to 30 fold) | – |
| – | < 5 | < 75 | – | – | – | – | > 50 | CC(C)[C@@H]1CC[C@@H](C)CN1C(=O)C(=O)Nc1cnc(N)c2cn[nH]c12 (racemic) [Compound 244, N-(4-amino-1H-pyrazolo[4,3-c]pyridin-7-yl)-2-(rac-(2S,5R)-2-isopropyl-5-methylpiperidin-1-yl)-2-oxoacetamide] | < 100 | – | – |
| 5 to 50 | < 5 | < 75 | – | – | – | – | – | C[C@H]1CC[C@H](c2ccc(CCN(C)C)cc2)N(C(=O)C(=O)Nc2cnc(N)c3c2cnn3C)C1 [Compound 202, N-(7-Amino-1-methyl-pyrazolo[3,4-c]pyridin-4-yl)-2-oxo-2-[(2R,5S)-2-[4-[2-(dimethylamino)ethyl]phenyl]-5-methyl-1-piperidyl]acetamide] | < 100 | C (“C” indicates an IC50 ratio of less than 15 fold) | – |
| > 50 | < 5 | > 125 | – | – | – | – | – | C[C@H]1CC[C@H]([C@@H]2CCOC2)N(C(=O)C(=O)Nc2cnc(N)c3cn[nH]c23)C1 (single isomer, unassigned) [Compound 237] | 100 to 1000 | A (“A” indicates an IC50 ratio greater than or equal to 30 fold) | – |
| – | < 5 | < 75 | – | – | – | – | 5 to 50 | [2H]c1c([2H])c([2H])c([C@H]2CC[C@H](C)CN2C(=O)C(=O)Nc2cnc(N)c3cn[nH]c23)c([2H])c1[2H] (single isomer, unassigned) [Compound 268] | < 100 | – | – |
